US20260274856A1, “COVALENT CEREBLON LIGANDS” (C4 THERAPEUTICS, INC., priority 2023, published 2026)
Like-named read-outs stand apart in the source and are kept apart here.

Molecular target: cellular cereblon (CRBN) (Homo sapiens, UniProt Q96SW2)
Assay: NanoBRET Target Engagement Assay, competition with pomalidomide tracer in 293T.116 cells
Settings: for NanoBRET TE 293T.116 CRBN 6 hours IP nM / NanoBRET TE 293T.116 CRBN 24 hours IP nM / IC50 / NanoBRET TE 293T.116 CRBN 2 hours IP nM: 293T.116 cells
[1] = NanoBRET TE 293T.116 CRBN 6 hours IC50 nM, 6 hours incubation
[2] = NanoBRET TE 293T.116 CRBN 24 hours IC50 nM, 24 hours incubation
[3] = read-out: NanoBRET TE 293T.116 CRBN 6 hours Emax
[4] = read-out: NanoBRET TE 293T.116 CRBN 24 hours Emax
[5] = NanoBRET TE 293T.116 CRBN 2 hours IC50 nM, 2 hours incubation
[6] = read-out: NanoBRET TE 293T.116 CRBN 2 hours Emax

SMILES	NanoBRET TE 293T.116 CRBN 6 hours IP nM (6 hours incubation)	NanoBRET TE 293T.116 CRBN 24 hours IP nM (24 hours incubation)	IC50 [1]	IC50 [2]	Emax [3]	Emax [4]	NanoBRET TE 293T.116 CRBN 2 hours IP nM (2 hours incubation)	IC50 [5]	Emax [6]
O=C1CCC(Oc2ccc(S(=O)(=O)F)cn2)C(=O)N1 (stereo not drawn) [Compound A-9, 6-((2,6-dioxopiperidin-3-yl)oxy)pyridine-3-sulfonyl fluoride]	** (<10 μM and >1 μM is **)	* (>=10 μM is *)	1000 to 10000 nM	> 10000 nM	< 50%	50 to 80%	–	–	–
Cn1nc(N2CCC(=O)NC2=O)c2cccc(S(=O)(=O)F)c21 [Compound A-10, 3-(2,4-dioxotetrahydropyrimidin-1(2H)-yl)-1-methyl-1H-indazole-7-sulfonyl fluoride]	*** (<= 1 μM is ***)	*** (<= 1 μM is ***)	< 1000 nM	< 1000 nM	< 50%	< 50%	*** (<= 1 μM is ***)	< 1000 nM	< 50%
CN(c1cccc(S(=O)(=O)F)c1)C1CCC(=O)NC1=O (stereo not drawn) [Compound A-11, 3-((2,6-dioxopiperidin-3-yl)(methyl)amino)benzenesulfonyl fluoride]	*** (<= 1 μM is ***)	*** (<= 1 μM is ***)	< 1000 nM	< 1000 nM	< 50%	< 50%	*** (<= 1 μM is ***)	< 1000 nM	< 50%
O=C1CCC(c2ccc(S(=O)(=O)F)cc2)C(=O)N1 (stereo not drawn) [Compound A-12, 4-(2,6-dioxopiperidin-3-yl)benzenesulfonyl fluoride]	*** (<= 1 μM is ***)	*** (<= 1 μM is ***)	< 1000 nM	1000 to 10000 nM	< 50%	< 50%	*** (<= 1 μM is ***)	< 1000 nM	< 50%
O=C1CCN(c2ccc(S(=O)(=O)F)cc2)C(=O)N1 [Compound A-14, 4-(2,4-dioxotetrahydropyrimidin-1(2H)-yl)benzenesulfonyl fluoride]	** (<10 μM and >1 μM is **)	** (<10 μM and >1 μM is **)	1000 to 10000 nM	> 10000 nM	< 50%	50 to 80%	** (<10 μM and >1 μM is **)	1000 to 10000 nM	< 50%
O=C1CCN(c2ccc(OS(=O)(=O)F)cc2)C(=O)N1 [Compound A-15, 4-(2,4-dioxotetrahydropyrimidin-1(2H)-yl)phenyl sulfurofluoridate]	** (<10 μM and >1 μM is **)	** (<10 μM and >1 μM is **)	> 10000 nM	1000 to 10000 nM	50 to 80%	< 50%	** (<10 μM and >1 μM is **)	> 10000 nM	50 to 80%
COc1ccc(OC2CCC(=O)NC2=O)cc1S(=O)(=O)F (stereo not drawn) [Compound A-16, 5-[(2,6-dioxo-3-piperidyl)oxy]-2-methoxy-benzenesulfonyl fluoride]	*** (<= 1 μM is ***)	*** (<= 1 μM is ***)	< 1000 nM	< 1000 nM	< 50%	< 50%	*** (<= 1 μM is ***)	< 1000 nM	< 50%
CN(c1cccc(OS(=O)(=O)F)c1)C1CCC(=O)NC1=O (stereo not drawn) [Compound A-18, 3-((2,6-dioxopiperidin-3-yl)(methyl)amino)phenyl sulfurofluoridate]	* (>=10 μM is *)	** (<10 μM and >1 μM is **)	1000 to 10000 nM	1000 to 10000 nM	< 50%	< 50%	** (<10 μM and >1 μM is **)	1000 to 10000 nM	< 50%
Cc1ccc(OC2CCC(=O)NC2=O)cc1OS(=O)(=O)F (stereo not drawn) [Compound A-19, 5-((2,6-dioxopiperidin-3-yl)oxy)-2-methylphenyl sulfurofluoridate]	** (<10 μM and >1 μM is **)	** (<10 μM and >1 μM is **)	1000 to 10000 nM	1000 to 10000 nM	< 50%	< 50%	** (<10 μM and >1 μM is **)	1000 to 10000 nM	< 50%
Cc1cc(OC2CCC(=O)NC2=O)cc(OS(=O)(=O)F)c1 (stereo not drawn) [Compound A-20, 3-((2,6-dioxopiperidin-3-yl)oxy)-5-methylphenyl sulfurofluoridate]	*** (<= 1 μM is ***)	*** (<= 1 μM is ***)	< 1000 nM	1000 to 10000 nM	< 50%	< 50%	–	–	–
